Test results as given in patent publication US10168342B2, “Lipid probes and uses thereof” (THE SCRIPPS RESEARCH INSTITUTE, priority 2015, dated 2019).

Columns and labels:
Assay in all cases: In situ competitive SILAC profiling with A-DA probe in (PMA-stimulated) A549 cells
Conditions in all cases: A549 cells, A-DA probe
[1] = molecular target: T1, A-DA lipid probe targets in A549 cells (Homo sapiens, UniProt Q6P1A2)
T1 sequence (Q6P1A2 1-487): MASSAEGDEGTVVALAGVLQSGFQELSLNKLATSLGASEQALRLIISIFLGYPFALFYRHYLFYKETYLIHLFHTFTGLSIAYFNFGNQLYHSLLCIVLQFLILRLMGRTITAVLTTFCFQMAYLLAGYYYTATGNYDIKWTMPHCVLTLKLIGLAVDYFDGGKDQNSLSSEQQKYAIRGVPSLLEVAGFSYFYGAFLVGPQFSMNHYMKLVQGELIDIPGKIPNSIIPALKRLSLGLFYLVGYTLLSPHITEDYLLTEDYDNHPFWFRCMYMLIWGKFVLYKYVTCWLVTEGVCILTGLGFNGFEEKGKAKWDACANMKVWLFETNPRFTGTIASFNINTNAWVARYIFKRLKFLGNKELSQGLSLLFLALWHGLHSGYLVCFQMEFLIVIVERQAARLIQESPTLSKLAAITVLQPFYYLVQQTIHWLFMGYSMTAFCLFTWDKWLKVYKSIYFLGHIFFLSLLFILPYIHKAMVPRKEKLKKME

[2] = molecular target: T2, A-DA lipid probe targets in A549 cells (Homo sapiens, UniProt P30519)
T2 sequence (P30519 1-316): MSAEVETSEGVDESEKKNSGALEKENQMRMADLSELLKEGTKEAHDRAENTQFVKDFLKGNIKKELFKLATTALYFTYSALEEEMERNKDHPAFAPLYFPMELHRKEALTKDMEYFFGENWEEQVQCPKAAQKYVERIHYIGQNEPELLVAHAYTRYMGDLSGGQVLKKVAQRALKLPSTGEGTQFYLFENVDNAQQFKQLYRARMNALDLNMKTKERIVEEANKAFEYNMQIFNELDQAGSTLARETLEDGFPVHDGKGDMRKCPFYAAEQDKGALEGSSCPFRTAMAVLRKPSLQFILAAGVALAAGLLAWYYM

[3] = molecular target: T3, A-DA lipid probe targets in A549 cells (Homo sapiens, UniProt Q96KC8)
T3 sequence (Q96KC8 48-554): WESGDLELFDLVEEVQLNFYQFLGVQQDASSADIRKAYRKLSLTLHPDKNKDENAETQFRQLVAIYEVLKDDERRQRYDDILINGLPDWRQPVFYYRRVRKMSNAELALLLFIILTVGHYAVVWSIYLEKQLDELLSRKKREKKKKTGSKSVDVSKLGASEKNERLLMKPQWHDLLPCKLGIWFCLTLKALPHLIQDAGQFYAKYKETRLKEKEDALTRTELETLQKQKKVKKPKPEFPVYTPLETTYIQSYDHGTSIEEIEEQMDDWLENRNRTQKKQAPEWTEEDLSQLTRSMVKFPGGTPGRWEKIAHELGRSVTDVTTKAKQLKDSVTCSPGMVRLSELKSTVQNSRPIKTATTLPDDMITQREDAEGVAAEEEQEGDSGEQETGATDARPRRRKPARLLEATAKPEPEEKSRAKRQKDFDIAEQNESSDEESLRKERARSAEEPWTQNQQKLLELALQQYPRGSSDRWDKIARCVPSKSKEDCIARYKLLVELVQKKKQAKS

[4] = molecular target: T4, A-DA lipid probe targets in A549 cells (Homo sapiens, UniProt P07602)
T4 sequence (P07602 60-524): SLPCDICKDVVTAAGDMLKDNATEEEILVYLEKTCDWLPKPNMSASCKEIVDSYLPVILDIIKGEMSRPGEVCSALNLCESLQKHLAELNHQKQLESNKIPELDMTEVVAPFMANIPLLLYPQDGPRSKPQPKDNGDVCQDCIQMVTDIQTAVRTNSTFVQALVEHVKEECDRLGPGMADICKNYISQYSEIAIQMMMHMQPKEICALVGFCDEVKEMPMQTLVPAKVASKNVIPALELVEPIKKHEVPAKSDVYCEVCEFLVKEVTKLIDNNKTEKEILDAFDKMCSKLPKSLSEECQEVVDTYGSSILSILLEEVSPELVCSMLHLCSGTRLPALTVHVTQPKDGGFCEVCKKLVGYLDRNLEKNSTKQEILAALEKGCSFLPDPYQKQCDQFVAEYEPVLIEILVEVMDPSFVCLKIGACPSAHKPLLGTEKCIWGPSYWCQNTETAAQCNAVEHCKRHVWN

[5] = molecular target: T5, A-DA lipid probe targets in A549 cells (Homo sapiens, UniProt Q9HAW7)
T5 sequence (Q9HAW7 26-530): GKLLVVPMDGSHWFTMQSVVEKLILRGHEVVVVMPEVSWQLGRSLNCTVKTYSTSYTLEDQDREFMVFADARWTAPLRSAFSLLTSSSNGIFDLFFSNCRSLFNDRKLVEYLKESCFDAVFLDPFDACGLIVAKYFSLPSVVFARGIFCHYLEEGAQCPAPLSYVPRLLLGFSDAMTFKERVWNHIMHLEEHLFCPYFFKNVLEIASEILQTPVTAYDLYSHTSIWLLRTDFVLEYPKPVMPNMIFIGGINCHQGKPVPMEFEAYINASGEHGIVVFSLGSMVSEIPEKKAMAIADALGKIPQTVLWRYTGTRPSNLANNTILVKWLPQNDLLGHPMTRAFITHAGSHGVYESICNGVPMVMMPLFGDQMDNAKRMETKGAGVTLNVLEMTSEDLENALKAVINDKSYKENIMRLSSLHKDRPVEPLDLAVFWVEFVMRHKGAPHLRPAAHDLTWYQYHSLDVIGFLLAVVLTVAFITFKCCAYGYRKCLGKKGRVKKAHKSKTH

[6] = molecular target: A-DA lipid probe targets in A549 cells (Homo sapiens, UniProt Q9H6K4)
Chain of A-DA lipid probe targets in A549 cells (Homo sapiens, UniProt Q9H6K4) (Q9H6K4 whole entry): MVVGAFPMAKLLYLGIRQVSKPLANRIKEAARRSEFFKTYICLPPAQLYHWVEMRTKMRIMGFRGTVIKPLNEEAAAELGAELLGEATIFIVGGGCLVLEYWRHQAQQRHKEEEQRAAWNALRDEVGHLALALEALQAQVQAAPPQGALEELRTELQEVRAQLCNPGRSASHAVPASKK

In the case of `O=C(/C=C/c1cccnc1)NCCCCC1CCN(C(=O)c2ccccc2)CC1` [FK-866, reference compound], the “SILAC ratio, LPCAT3 (Q6P1A2)” value ([1]; competitor 25 μM) is reported as 3.3, the “SILAC ratio, HMOX2 (P30519)” value ([2]; competitor 25 μM) is reported as 1.3 and the “SILAC ratio, DNAJC1 (Q96KC8)” value ([3]; competitor 25 μM) is reported as 1.3. The “SILAC ratio, PSAP (P07602)” value ([4]; competitor 25 μM) was 1.2, the “SILAC ratio, UGT1A7 (Q9HAW7)” value ([5]; competitor 25 μM) was 2.1 and the “SILAC ratio, OPA3 (Q505D7)” value ([6]; competitor 25 μM) was 1.3.
In the case of `C=CCN(C)CCCCCCOc1ccc(C(=O)c2ccc(Br)cc2)c(F)c1` [Ro488071], the “SILAC ratio, LPCAT3 (Q6P1A2)” value ([1]; competitor 5 μM) is reported as 1.3, the “SILAC ratio, LPCAT3 (Q6P1A2)” value ([1]; competitor 50 μM) is reported as 2.7 and the “SILAC ratio, HMOX2 (P30519)” value ([2]; competitor 5 μM) is reported as 1.3. The “SILAC ratio, HMOX2 (P30519)” value ([2]; competitor 50 μM) was 3.4, the “SILAC ratio, DNAJC1 (Q96KC8)” value ([3]; competitor 5 μM) was 1.6 and the “SILAC ratio, DNAJC1 (Q96KC8)” value ([3]; competitor 50 μM) was 3.9. The “SILAC ratio, PSAP (P07602)” value ([4]; competitor 5 μM) was 2.3, the “SILAC ratio, PSAP (P07602)” value ([4]; competitor 50 μM) was 3.1 and the “SILAC ratio, UGT1A7 (Q9HAW7)” value ([5]; competitor 5 μM) was 1.6. For the same molecule, the “SILAC ratio, UGT1A7 (Q9HAW7)” value ([5]; competitor 50 μM) was 40.0 and the “SILAC ratio, OPA3 (Q505D7)” value ([6]; competitor 5 μM) was 1.8.
